# In PubChem BioAssay (NCI):
#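 Values below derive from 48-hour exposures of cells grown in 96-well plates, with endpoints linearly interpolated between the two concentrations bracketing the appropriate inhibition level. GI50: concentration for 50% inhibition of growth. The concentration for full growth arrest is given as TGI.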
# Experiments:
# Experiment in all cases: growth of human tumour cells (NCI), 48 h
# [1] = system: RXF 393 renal
# [2] = system: KM12 colon
# [3] = system: CAKI-1 renal
# [4] = system: RPMI-8226 leukemia
# [5] = system: NCI-H226 lung
# [6] = system: COLO 205 colon
# [7] = system: HOP-92 NSCLC
# [8] = system: NCI-H522 lung
# [9] = system: SW-620 colon
# [10] = system: BT-549 breast
smiles,measurement,setting,value
COC(=O)C(CC1=C(O)Nc2ccccc2N1)/C(=N/NC(N)=O)C(=O)Nc1ccccc1C (stereo unspecified),TGI,[1],> 100 µM
same,TGI,[2],> 100 µM
same,TGI,[3],> 100 µM
same,TGI,[4],48.4 µM
same,TGI,[5],> 100 µM
same,TGI,[6],> 100 µM
same,TGI,[7],> 100 µM
same,TGI,[8],33.9 µM
CCN(CC)c1oc(N(CC)CC)c(C(=O)Nc2ccccn2)c(=O)c1C(C)=O,TGI,[2],> 100 µM
same,TGI,[3],> 100 µM
same,TGI,[4],> 100 µM
same,TGI,[5],> 100 µM
same,TGI,[6],> 100 µM
same,TGI,[9],> 100 µM
same,TGI,[7],> 100 µM
same,TGI,[8],> 100 µM
CCOC(=O)c1cc2c(n1Cc1cc(OC)c(OC)c(OC)c1)-c1oncc1CCC2,GI50,[1],0.126 µM
same,TGI,[1],> 100 µM
same,GI50,[2],0.0884 µM
same,TGI,[2],> 55.4 µM
same,GI50,[3],0.105 µM
same,TGI,[3],> 27.8 µM
same,GI50,[4],0.42 µM
same,TGI,[4],21.9 µM
same,GI50,[5],1.27 µM
same,TGI,[5],> 53 µM
same,GI50,[6],0.109 µM
same,TGI,[6],0.495 µM
same,GI50,[9],0.186 µM
same,TGI,[9],> 100 µM
same,GI50,[10],0.647 µM
same,TGI,[10],22 µM
same,GI50,[8],0.0208 µM
same,TGI,[8],0.073 µM
O=C(NC(=Nc1ccccc1)SCCSC(=Nc1ccccc1)NC(=O)c1cccs1)c1cccs1,TGI,[1],68.9 µM
same,TGI,[2],> 100 µM
same,TGI,[3],> 100 µM
same,TGI,[4],> 100 µM
same,TGI,[5],> 100 µM
same,TGI,[6],> 100 µM
same,TGI,[9],> 100 µM
same,TGI,[7],46.1 µM
same,TGI,[8],63.6 µM
COc1ccc(CC2(Cc3ccc(OC)cc3)CCOC2=O)cc1,TGI,[2],> 100 µM
same,TGI,[3],> 100 µM
same,TGI,[4],> 100 µM
same,TGI,[5],> 100 µM
same,TGI,[6],> 100 µM
same,TGI,[9],> 100 µM
same,TGI,[7],> 100 µM
same,TGI,[8],> 100 µM
CCOc1ccc(NC(=O)C(=O)C(C(=O)c2ccc3ccccc3c2)C2OC(=O)c3ccccc32)cc1 (stereo unspecified),TGI,[2],> 100 µM
same,TGI,[3],> 100 µM
same,TGI,[4],38.4 µM
same,TGI,[5],13.5 µM
same,TGI,[6],41.7 µM
same,TGI,[9],92.6 µM
same,TGI,[7],68.3 µM
same,TGI,[8],31.6 µM
[O-]c1ccccc1/C=N/C(/N=C/c1ccccc1[O-])c1ccccc1O.[O-]c1ccccc1/C=N/C(/N=C/c1ccccc1[O-])c1ccccc1O.[Zr+4],GI50,[2],38.6 µM
same,TGI,[2],> 100 µM
same,GI50,[4],24.5 µM
same,TGI,[4],> 100 µM
same,GI50,[9],26.6 µM
same,TGI,[9],> 100 µM
same,GI50,[8],10.9 µM
same,TGI,[8],65.3 µM
COc1cccc(NC(=O)CC(=O)N2N=C(n3ccc4ccccc43)CC2c2ccccc2)c1 (stereo unspecified),TGI,[1],> 100 µM
same,TGI,[2],> 100 µM
same,TGI,[4],> 100 µM
same,TGI,[6],> 100 µM
same,TGI,[9],> 100 µM
same,TGI,[7],> 100 µM
same,TGI,[8],> 100 µM
O=C(N/C(=C\c1ccc(/C=C(\NC(=O)c2ccccc2)c2nc3ccccc3[nH]2)cc1)c1nc2ccccc2[nH]1)c1ccccc1,TGI,[1],> 100 µM
same,TGI,[3],> 100 µM
same,TGI,[4],> 100 µM
same,TGI,[6],> 100 µM
same,TGI,[9],> 100 µM
same,TGI,[7],> 100 µM
same,TGI,[8],> 100 µM
CC(=O)[CH-]C(=O)c1ccccc1.CC(=O)[CH-]C(=O)c1ccccc1.CC(=O)[CH-]C(=O)c1ccccc1.[In+3],GI50,[1],48.3 µM
same,TGI,[1],> 100 µM
same,GI50,[2],61.7 µM
same,TGI,[2],> 100 µM
same,GI50,[3],99.7 µM
same,TGI,[3],> 100 µM
same,GI50,[4],19.2 µM
same,TGI,[4],64.4 µM
same,GI50,[5],24.7 µM
same,TGI,[5],84.3 µM
same,GI50,[6],31.9 µM
same,TGI,[6],85.4 µM
same,GI50,[9],53.1 µM
same,TGI,[9],> 100 µM
same,GI50,[7],17.8 µM
same,TGI,[7],49.8 µM
same,GI50,[8],21.8 µM
same,TGI,[8],59.8 µM
C[C@]12CCC(=O)CC1CCCC2=O (stereo partly specified),TGI,[1],> 100 µM
same,TGI,[2],> 100 µM
same,TGI,[3],> 100 µM
same,TGI,[4],> 100 µM
same,TGI,[6],> 100 µM
same,TGI,[9],> 100 µM
same,TGI,[7],> 100 µM
same,TGI,[8],> 100 µM
COc1ccc(C(=O)/C=C/c2cccc(Nc3ccnc4cc(Cl)ccc34)c2)cc1,GI50,[1],1.82 µM
same,TGI,[1],5.17 µM
same,GI50,[2],2.45 µM
same,TGI,[2],> 100 µM
same,GI50,[4],0.572 µM
same,TGI,[4],13.8 µM
same,GI50,[5],1.78 µM
same,TGI,[5],> 100 µM
same,GI50,[6],3.85 µM
same,TGI,[6],> 100 µM
same,GI50,[9],1.98 µM
same,TGI,[9],20 µM
same,GI50,[7],1.09 µM
same,TGI,[7],7.08 µM
same,GI50,[8],1.88 µM
same,TGI,[8],> 100 µM
O=[N+]([O-])c1cc(Cl)cnc1Br,TGI,[1],3.12 µM
same,TGI,[2],19 µM
same,TGI,[4],6.79 µM
same,TGI,[5],6.62 µM
same,TGI,[6],3.12 µM
same,TGI,[9],12.7 µM
same,TGI,[10],11.3 µM
same,TGI,[7],25.4 µM
CCc1ccccc1NC(=O)/C(N=O)=C(/C)O,TGI,[1],> 100 µM
same,TGI,[2],> 100 µM
same,TGI,[3],> 100 µM
same,TGI,[4],> 100 µM
same,TGI,[5],> 100 µM
same,TGI,[6],> 100 µM
same,TGI,[9],> 100 µM
same,TGI,[8],> 100 µM
COc1cnc2c(c1)C(=O)c1c-2n(CCCNC2=NCCS2)c(=O)c2cc(Cl)ccc12,GI50,[1],0.783 µM
same,TGI,[1],2.2 µM
same,GI50,[2],1.33 µM
same,TGI,[2],2.82 µM
same,GI50,[3],0.0444 µM
same,TGI,[3],1.6 µM
same,GI50,[4],1.07 µM
same,TGI,[4],4.89 µM
same,GI50,[5],0.687 µM
same,TGI,[5],2.29 µM
same,GI50,[6],1.06 µM
same,TGI,[6],2.41 µM
same,GI50,[9],0.146 µM
same,TGI,[9],2.08 µM
same,GI50,[10],1.05 µM
same,TGI,[10],2.56 µM
CC1(C)CC2CC(CC(C)(C)C2=O)C1=O,TGI,[1],> 100 µM
same,TGI,[2],> 100 µM
same,TGI,[3],> 100 µM
same,TGI,[4],> 100 µM
same,TGI,[6],> 100 µM
same,TGI,[9],> 100 µM
same,TGI,[7],> 100 µM
CCc1cccc(C)c1NC(=O)C1=C(C)NC(C)=C(C(=O)Nc2c(C)cccc2CC)C1c1ccc2c(c1)OCO2,TGI,[1],27.2 µM
same,TGI,[2],30.9 µM
same,TGI,[3],39.4 µM
same,TGI,[4],47.2 µM
same,TGI,[5],49.5 µM
same,TGI,[6],38.6 µM
same,TGI,[9],55.9 µM
same,TGI,[7],59.3 µM
same,TGI,[8],30.1 µM
COc1ccc(N(/C=C/C(=O)C(F)(F)F)CC(=O)c2ccc(F)cc2)cc1,GI50,[1],28.8 µM
same,TGI,[1],77.4 µM
same,GI50,[2],21.6 µM
same,TGI,[2],56 µM
same,GI50,[3],21.7 µM
same,TGI,[3],72.1 µM
same,GI50,[4],15.2 µM
same,TGI,[4],47.3 µM
same,GI50,[5],12.1 µM
same,TGI,[5],33.3 µM
same,GI50,[6],26.9 µM
same,TGI,[6],84.5 µM
same,GI50,[9],35 µM
same,TGI,[9],> 100 µM
same,GI50,[10],30.4 µM
same,TGI,[10],> 100 µM
same,GI50,[8],18.7 µM
same,TGI,[8],36.9 µM
COc1ccc2nc3cc(Cl)ccc3c(SCC(=O)Nc3ccccc3-c3ccccc3NC(=O)CSc3c4ccc(Cl)cc4nc4ccc(OC)cc34)c2c1,TGI,[1],> 100 µM
same,TGI,[2],> 100 µM
same,TGI,[3],> 100 µM
same,TGI,[4],> 100 µM
same,TGI,[5],> 100 µM
same,TGI,[6],> 100 µM
same,TGI,[9],> 100 µM
same,TGI,[7],> 100 µM
same,TGI,[8],> 100 µM
CCCN(CCC)C(=O)C(=O)c1c(N)[nH]n(-c2ccccc2)c1=O,TGI,[2],> 100 µM
same,TGI,[3],> 100 µM
same,TGI,[4],> 100 µM
same,TGI,[5],> 100 µM
same,TGI,[6],> 100 µM
same,TGI,[9],> 100 µM
same,TGI,[7],> 100 µM
same,TGI,[8],> 100 µM
